A short description of data set [1]: Stability in human whole blood assessed as amidase-mediated carboxylic acid formation by measuring parent compound remaining measured after 1 hr. Format: ADME, tissue-based.
Data set [2] in a line: Half life in mouse liver microsomes at 0.5 mM preincubated for 5 mins followed by NADP addition and measured after LC-MS/MS analysis. In kind it is ADME, Microsome. On the technique in general: Liver microsomes are a subcellular fraction often used to study metabolism.
A short description of data set [3]: Dose normalized AUC in po dosed mouse. Format: ADME, organism-based. Conditions: in vivo.
The species named for another data set is Mus musculus. Kind of data set: animal or person. Conditions: C57BL/6J, po.
Data set [4] in a line: Apparent permeability of the compound at 2.5 uL at pH 7.4 incubated for 3 hrs under shaking condition by PAMPA. Format: ADME. Background: PAMPA measures passive passage across an artificial lipid membrane.
The nature of data set [5]: Terminal half life in mouse. Format: ADME, organism-based. Conditions: in vivo.
Data set [6] in a line: Solubility of the compound in FaSSIF by HPLC analysis. Format: physicochemical.
The nature of data set [7]: Clearance in iv dosed mouse. In kind it is ADME, organism-based. Conditions: in vivo.
A short description of data set [8]: Volume of distribution at steady state in mouse. Format: ADME, organism-based. Conditions: in vivo, read-out: Vdss.
The nature of data set [9]: Oral bioavailability in mouse. Conditions: in vivo. Format: ADME, organism-based.

Converted amounts (≈) assume the structure as drawn.

On to `COc1ccc2cc(C(=O)N[C@H]3CCNC3=O)cnc2c1`, for which the Stability in data set [1] amounted to 100%.

In the case of `CC(C)(O)[C@H]1CC[C@H](NC(=O)c2cnc3cc(OC(F)F)ccc3c2)CC1`, the half-life (commonly how long it takes for the measured level to halve) in [2] was above 3 h. This molecule also gave an AUC/dose in data set [3] of 1800 ng·h/mL per mg/kg. Also, it took a dose of 0.032 mg/kg to reach the 50% effect level in the data set filed under Mus musculus (ED50). In addition, the apparent permeability (Papp) – broadly, the rate of passage across a membrane or cell layer, normalised by area and donor concentration – at 3 h in data set [4] turned out to be 24 ×10⁻⁶ cm/s. For the same molecule, the beta t1/2 in [5] was 3.8 h.

In the case of `COc1ccc2cc(C(=O)N[C@H]3CC[C@H](C(C)(C)O)CC3)cnc2c1`, the half-life in data set [2] turned out to be 0.633 h.

Take `COc1ccc2cc(C(=O)NC(C)(C)C)cnc2c1`: in data set [1], the Stability stood at 1%.

Take `CC(C)(O)[C@H]1CC[C@H](NC(=O)c2cnc3cc(OC(F)(F)F)ccc3c2)CC1`: the half-life in [2] was above 3 h; in data set [5], 7.9 h. In data set [3], this molecule registered an AUC/dose of 1900 ng·h/mL per mg/kg. Further, in data set [6], the solubility (as a rule, the concentration that dissolves in the medium under given conditions) was found to be 16 µg/mL (≈ 40.4 µM). Moreover, the clearance – broadly, a measure of how efficiently the substance is removed, as volume per time – in data set [7] was 3.8 mL/min/kg. In data set [4], the apparent permeability (Papp) at 3 h is 47 ×10⁻⁶ cm/s. Further, the Vd in data set [8] is 2.5 L/kg. The bioavailability (usually dose-corrected exposure relative to a reference, in per cent) in data set [9] is 46%.

Turning to `COc1ccc2cc(C(=O)Nc3cc[nH]n3)cnc2c1`, the Stability in data set [1] came out at 93%.

For `COc1ccc2cc(C(=O)Nc3cn[nH]c3)cnc2c1`, the Stability in data set [1] was determined as 63%.
